Values of other authors as cited in patent publication US11751566B2, “Growth regulator concentrate and use thereof” (FINE AGROCHEMICALS LIMITED, priority 2013, dated 2023).

| solubility in solvents (including water) | SMILES | solubility in organic polar solvent (solution as generally provided) (organic polar solvent, like an alcohol) |
| --- | --- | --- |
| low solubility | CCC(=O)C1C(=O)CC(C(=O)O)CC1=O (centres unmarked) [Prohexadione] |  |
|  | C=C1C[C@]23C[C@@]1(O)CC[C@H]2[C@@]12C=C[C@H](O)[C@@](C)(C(=O)O1)[C@H]2[C@@H]3C(=O)O [GA3, Gibberellic acid] | 3-4 wt % |
